In paper PMC10486429, “Investigations Using Albumin Binders to Modify the Tissue Distribution Profile of Radiopharmaceuticals Exemplified with Folate Radioconjugates” (Cancers, 2023) one finds logD value data, which are given here for three compounds.

The data set in a line: n-octanol/PBS distribution coefficient (shake-flask) of 177Lu-DOTA-ALBs. The settings on record: n-octanol/PBS pH 7.4. The class given is physicochemical. As for the experimental part: The radiolabeling of DOTA-ALBs was carried out under standard labeling conditions at pH 4.5. The ligands (10−100 μM) were mixed with lutetium-177 (no-carrier added [^177Lu]LuCl3; in 0.04 M HCl; ITM GmbH Medical Isotopes, Munich, Germany) to reach molar activities of 25–50 MBq/nmol (Supplementary Materials Section S2). An analytical HPLC system equipped with a C18 column and a radioactivity detector was used for quality control of the radiolabeled DOTA-ALBs (Supplementary Materials Section S2). The ^177Lu-DOTA-ALBs were used for preclinical investigations without separation of the labeled from the unlabeled fraction. The radiolytic stability of the ^177Lu-DOTA-ALBs (50 MBq/nmol) diluted in phosphate-buffered saline (PBS; 100 MBq/500 μL) was assessed in vitro in the absence and presence of L-ascorbic acid (Supplementary Materials Section S3). The n-octanol/PBS distribution coefficients (logD values) were determined using a shake-flask method according to an established protocol (Supplementary Materials Section S4). The logD values were analyzed using a one-way ANOVA with Tukey’s multiple comparisons post-test using GraphPad Prism software (version 8). […]
Purpose: The n-octanol/PBS distribution coefficients (logD values) were determined for all 177Lu-DOTA-ALBs in order to assess their hydrophilic/hydrophobic properties.
Methods: The n-octanol/PBS distribution coefficients (logD values) of the 177Lu-DOTA-ALBs were determined as previously described. […]
The vials were vortexed vigorously for 1 min followed by centrifugation for 6 min at 560 rcf for phase separation. An aliquot was taken from each phase and measured in a γ-counter (Perkin Elmer, Wallac Wizard 1480, Waltham, MA, USA). The distribution coeffi-cients were calculated as the logarithm of the ratio of counts per minute (cpm) measured in the n-octanol phase relative to the cpm measured in the PBS phase. […]
Methods: Relative binding affinities of 177Lu-DOTA-ALBs to mouse (MSA) and hu-man (HSA) serum albumin in the respective blood plasma were determined using an ul-trafiltration assay according to a previously described procedure. […]

The compound `O=C(O)CN1CCN(CC(=O)O)CCN(CC(=O)NCCC(=O)N[C@@H](CCCCNC(=O)c2ccc(CNC(=O)CCCc3ccc(I)cc3)cc2)C(=O)O)CCN(CC(=O)O)CC1.[177Lu]` [[^177Lu]Lu-DOTA-ALB-3] registered a logD value of −2.64 ± 0.04.
For `O=C(O)CN1CCN(CC(=O)O)CCN(CC(=O)NCCC(=O)N[C@@H](CCCCNC(=O)CCCCc2ccc(I)cc2)C(=O)O)CCN(CC(=O)O)CC1.[177Lu]` [[^177Lu]Lu-DOTA-ALB-24] the value was −2.68 ± 0.06; for `O=C(O)CN1CCN(CC(=O)O)CCN(CC(=O)NCCC(=O)N[C@@H](CCCCNC(=O)c2ccc(CNC(=O)CCCCc3ccc(I)cc3)cc2)C(=O)O)CCN(CC(=O)O)CC1.[177Lu]` [[^177Lu]Lu-DOTA-ALB-25], −2.39 ± 0.04.
